Source: patent publication US10875876B2, “Cyclized sulfamoylarylamide derivatives and the use thereof as medicaments for the treatment of hepatitis B” (priority 2015, dated 2020)
Like-named read-outs stand apart in the source and are kept apart here.

Columns and labels:
[1] = Cytotoxicity in HepG2 cells, Resazurin assay; details: human, HepG2 cells, TOX-HepG2-4 d CC50 (μM), HepG2 cells incubated for 4 days, viability by Resazurin assay
HBV = assay: anti HBV activity, HepG2.117 cell line, intracellular HBV DNA by realtime PCR; type: cell-based; details: HepG2.117 cell line (Tet-off), 3 days of treatment, intracellular HBV DNA quantified by realtime PCR, read-out: HBV-AVE-HepG2.117 EC50
Procedure: The anti HBV activity was measured using the HepG2.117 cell line, a stable, inducibly HBV producing cell line, which replicates HBV in the absence of doxicycline (Tet-off system). For the antiviral assay, HBV replication was induced, followed by a treatment with serially diluted compound in 96-well plates in duplicate. After 3 days of treatment, the antiviral activity was determined by quantification of intracellular HBV DNA using realtime PCR and an HBV specific primer set and probe.

[2] = Hepatitis B virus, HepG2.117, 72 h

**Q.** With `Cn1cc2c(c1C(=O)Nc1ccnc(C(F)(F)F)c1)C=CC(C(F)(F)F)NS2(=O)=O` (stereo not shown) [Compound 58, 7-methyl-1,1-dioxo-3-(trifluoromethyl)-N-[2-(trifluoromethyl)-4-pyridyl]-2,3-dihydropyrrolo[3,4-f]thiazepine-6-carboxamide] as the compound, how does the CC50 at 4 days [1] read?
**A.** > 25 µM

**Q.** What about the EC50 (HBV; [2]) of the same compound?
**A.** 290 nM

**Q.** With `C[C@H](O)[C@H]1CCc2c(cn(C)c2C(=O)Nc2ccc(F)c(C#N)c2F)S(=O)(=O)N1` [Compound 159, (3R)—N-(3-cyano-2,4-difluoro-phenyl)-3-[(1S)-1-hydroxyethyl]-7-methyl-1,1-dioxo-2,3,4,5-tetrahydropyrrolo[3,4-f]thiazepine-6-carboxamide] as the compound, how does the CC50 at 4 days [1] read?
**A.** > 25 µM

**Q.** And the EC50 (HBV; [2])?
**A.** 14 nM

**Q.** For `Cc1cc(CC2(C)COc3c(cn(C)c3C(=O)Nc3ccc(F)c(F)c3)S(=O)(=O)N2)no1` (single isomer, unassigned) [Compound 162a, N-(3,4-difluorophenyl)-3,7-dimethyl-3-[(5-methylisoxazol-3-yl)methyl]-1,1-dioxo-2,4-dihydropyrrolo[3,4-b][1,4,5]oxathiazepine-6-carboxamide], which CC50 at 4 days [1] is on record?
**A.** > 25 µM

**Q.** What about the EC50 (HBV) of the same compound?
**A.** 33 nM

**Q.** Which CC50 at 4 days [1] does the source give for `CN(C)CC1COc2c(cn(C)c2C(=O)Nc2ccc(F)c(F)c2)S(=O)(=O)N1` (stereo not shown) [Compound 110, N-(3,4-difluorophenyl)-3-(dimethylaminomethyl)-7-methyl-1,1-dioxo-3,4-dihydro-2H-pyrrolo[3,4-b][1,4,5]oxathiazepine-6-carboxamide] here?
**A.** > 25 µM

**Q.** What about the EC50 (HBV; [2]) of the same compound?
**A.** 200 nM

**Q.** For `C[C@H](O)[C@H]1CCc2c(cn(C)c2C(=O)Nc2ccc(F)c(C#N)c2)S(=O)(=O)N1` [Compound 90, (3R)—N-(3-cyano-4-fluoro-phenyl)-3-[(1S)-1-hydroxyethyl]-7-methyl-1,1-dioxo-2,3,4,5-tetrahydropyrrolo[3,4-f]thiazepine-6-carboxamide], which CC50 at 4 days [1] is on record?
**A.** > 25 µM

**Q.** And the EC50 (HBV; [2])?
**A.** 19 nM

**Q.** What does the source list for `Cn1cc2c(c1C(=O)Nc1ccc(F)c(F)c1)OC[C@@H](C1(O)CC1)NS2(=O)=O` [Compound 196, (3S)—N-(3,4-difluorophenyl)-3-(1-hydroxycyclopropyl)-7-methyl-1,1-dioxo-3,4-dihydro-2H-pyrrolo[3,4-b][1,4,5]oxathiazepine-6-carboxamide]?
**A.** CC50 at 4 days [1]: > 25 µM; EC50 (HBV; [2]): 65 nM

**Q.** Which results are given for `C[C@H](O)[C@H]1COc2c(cn(C)c2C(=O)Nc2ccc(F)c(C(F)F)c2)S(=O)(=O)N1` [Compound 64, (3R)—N-[3-(difluoromethyl)-4-fluoro-phenyl]-3-[(1S)-1-hydroxyethyl]-7-methyl-1,1-dioxo-3,4-dihydro-2H-pyrrolo[3,4-b][1,4,5]oxathiazepine-6-carb oxamide]?
**A.** CC50 at 4 days [1]: > 25 µM; EC50 (HBV; [2]): 8 nM

**Q.** For `CCC(O)[C@H]1COc2c(cn(C)c2C(=O)Nc2ccc(F)c(C#N)c2)S(=O)(=O)N1` (stereo partly drawn) [Compound 122a, (3R)—N-(3-cyano-4-fluoro-phenyl)-3-(1-hydroxypropyl)-7-methyl-1,1-dioxo-3,4-dihydro-2H-pyrrolo[3,4-b][1,4,5]oxathiazepine-6-carboxamide], which CC50 at 4 days [1] is on record?
**A.** > 25 µM

**Q.** And the EC50 (HBV; [2])?
**A.** 12 nM

**Q.** With `C[C@H]1CCc2c(cn(C)c2C(=O)Nc2ccc(F)c(Cl)c2F)S(=O)(=O)N1` (single isomer, unassigned) [Compound 54, (3*S)—N-(3-chloro-2,4-difluoro-phenyl)-3,7-dimethyl-1,1-dioxo-2,3,4,5-tetrahydropyrrolo[3,4-f]thiazepine-6-carboxamide] as the compound, how does the CC50 at 4 days [1] read?
**A.** > 25 µM

**Q.** And the EC50 (HBV; [2])?
**A.** 4 nM

**Q.** Which results are given for `Cn1cc2c(c1C(=O)Nc1ccc(F)c(F)c1)OC[C@](C)(Cc1ccccc1)NS2(=O)=O` [Compound 155, (3S)-3-benzyl-N-(3,4-difluorophenyl)-3,7-dimethyl-1,1-dioxo-2,4-dihydropyrrolo[3,4-b][1,4,5]oxathiazepine-6-carboxamide]?
**A.** CC50 at 4 days [1]: > 25 µM; EC50 (HBV; [2]): 25 nM

**Q.** For `C[C@H](O)[C@H]1CCc2c(cn(C)c2C(=O)Nc2ccnc(Br)c2)S(=O)(=O)N1` [Compound 111, (3R)—N-(2-bromo-4-pyridyl)-3-[(1S)-1-hydroxyethyl]-7-methyl-1,1-dioxo-2,3,4,5-tetrahydropyrrolo[3,4-f]thiazepine-6-carboxamide], which CC50 at 4 days [1] is on record?
**A.** > 25 µM

**Q.** And the EC50 (HBV; [2])?
**A.** 89 nM

**Q.** What does the source list for `C[C@H](O)[C@H]1C=Cc2c(cn(C)c2C(=O)Nc2ccc(F)c(F)c2)S(=O)(=O)N1` [Compound 84, (3R)—N-(3,4-difluorophenyl)-3-[(1S)-1-hydroxyethyl]-7-methyl-1,1-dioxo-2,3-dihydropyrrolo[3,4-f]thiazepine-6-carboxamide]?
**A.** CC50 at 4 days [1]: > 25 µM; EC50 (HBV; [2]): 10 nM

**Q.** What does the source list for `Cn1cc2c(c1C(=O)Nc1ccc(F)c(C#N)c1)CCC(C(F)(F)F)NS2(=O)=O` (racemic) [Compound 60, N-(3-cyano-4-fluoro-phenyl)-7-methyl-1,1-dioxo-3-(trifluoromethyl)-2,3,4,5-tetrahydropyrrolo[3,4-f]thiazepine-6-carboxamide]?
**A.** CC50 at 4 days [1]: > 25 µM; EC50 (HBV; [2]): 13 nM

**Q.** Which results are given for `C[C@H]1CCc2c(cn(C)c2C(=O)Nc2ccc(F)c(C(F)(F)F)c2)S(=O)(=O)N1` (single isomer, unassigned) [Compound 40, (3*S)—N-[4-fluoro-3-(trifluoromethyl)phenyl]-3,7-dimethyl-1,1-dioxo-2,3,4,5-tetrahydropyrrolo[3,4-f]thiazepine-6-carboxamide]?
**A.** CC50 at 4 days [1]: > 25 µM; EC50 (HBV; [2]): 22 nM

**Q.** Which results are given for `Cn1cc2c(c1C(=O)Nc1ccc(F)c(F)c1)CCNS2(=O)=O` [Compound 13, N-(3,4-difluorophenyl)-6-methyl-1,1-dioxo-3,4-dihydro-2H-pyrrolo-[3,4-e]thiazine-5-carboxamide]?
**A.** CC50 at 4 days [1]: > 25 µM; EC50 (HBV; [2]): 110 nM

**Q.** Which results are given for `Cc1cc(CC2(C)COc3c(cn(C)c3C(=O)Nc3ccnc(Cl)c3)S(=O)(=O)N2)no1` (single isomer, unassigned) [Compound 213a, N-(2-chloro-4-pyridyl)-3,7-dimethyl-3-[(5-methylisoxazol-3-yl)methyl]-1,1-dioxo-2,4-dihydropyrrolo[3,4-b][1,4,5]oxathiazepine-6-carboxamide]?
**A.** CC50 at 4 days [1]: > 25 µM; EC50 (HBV): 48 nM

**Q.** What does the source list for `Cn1cc2c(c1C(=O)Nc1ccnc(Cl)c1)OCC(C)(CO)NS2(=O)=O` (single isomer, unassigned) [Compound 204a, N-(2-chloro-4-pyridyl)-3-(hydroxymethyl)-3,7-dimethyl-1,1-dioxo-2,4-dihydropyrrolo[3,4-b][1,4,5]oxathiazepine-6-carboxamide]?
**A.** CC50 at 4 days [1]: > 25 µM; EC50 (HBV; [2]): > 125 nM

**Q.** Which CC50 at 4 days [1] does the source give for `CCC(O)[C@H]1COc2c(cn(C)c2C(=O)Nc2ccc(F)c(F)c2)S(=O)(=O)N1` (stereo partly drawn) [Compound 130a, (3R)—N-(3,4-difluorophenyl)-3-(1-hydroxypropyl)-7-methyl-1,1-dioxo-3,4-dihydro-2H-pyrrolo[3,4-b][1,4,5]oxathiazepine-6-carboxamide] here?
**A.** > 25 µM

**Q.** And the EC50 (HBV; [2])?
**A.** 18 nM

**Q.** With `CC[C@H](C)[C@H]1COc2c(cn(C)c2C(=O)Nc2ccc(F)c(F)c2)S(=O)(=O)N1` [Compound 23, (3 S)—N-(3,4-difluorophenyl)-7-methyl-3-[(1S)-1-methylpropyl]-1,1-dioxo-3,4-dihydro-2H-pyrrolo[3,4-b][1,4,5]oxathiazepine-6-carboxamide] as the compound, how does the CC50 at 4 days [1] read?
**A.** 10.6 µM

**Q.** And the EC50 (HBV; [2])?
**A.** 5 nM

**Q.** Which results are given for `Cn1cc2c(c1C(=O)Nc1ccc(F)c(F)c1)OCC(C(=O)O)NS2(=O)=O` (stereo not shown) [compound 242]?
**A.** CC50 at 4 days [1]: > 25 µM; EC50 (HBV; [2]): > 130 nM

**Q.** For `C[C@H](O)[C@H]1C=Cc2c(cn(C)c2C(=O)Nc2ccc(F)c(C#N)c2)S(=O)(=O)N1` [Compound 87, (3R)—N-(3-cyano-4-fluoro-phenyl)-3-[(1S)-1-hydroxyethyl]-7-methyl-1,1-dioxo-2,3-dihydropyrrolo[3,4-f]thiazepine-6-carboxamide], which CC50 at 4 days [1] is on record?
**A.** > 25 µM

**Q.** What about the EC50 (HBV; [2]) of the same compound?
**A.** 18 nM

**Q.** Which CC50 at 4 days [1] does the source give for `CC(NCC(F)(F)F)C1COc2c(cn(C)c2C(=O)Nc2ccc(F)c(C#N)c2)S(=O)(=O)N1` (single isomer, unassigned) [Compound 161a, N-(3-cyano-4-fluoro-phenyl)-7-methyl-1,1-dioxo-3-[1-(2,2,2-trifluoroethylamino)ethyl]-3,4-dihydro-2H-pyrrolo[3,4-b][1,4,5]oxathiazepine-6-carboxamide] here?
**A.** > 25 µM

**Q.** What about the EC50 (HBV) of the same compound?
**A.** 49 nM

**Q.** With `Cn1cc2c(c1C(=O)Nc1ccc(F)c(C#N)c1F)CCC(C(C)(C)O)NS2(=O)=O` (stereo not shown) [Compound 185, N-(3-cyano-2,4-difluoro-phenyl)-3-(1-hydroxy-1-methyl-ethyl)-7-methyl-1,1-dioxo-2,3,4,5-tetrahydropyrrolo[3,4-f]thiazepine-6-carboxamide] as the compound, how does the CC50 at 4 days [1] read?
**A.** > 25 µM

**Q.** And the EC50 (HBV; [2])?
**A.** 41 nM

**Q.** What does the source list for `Cc1cc(CC2(C)COc3c(cn(C)c3C(=O)Nc3ccc(F)c(F)c3)S(=O)(=O)N2)no1` (racemic) [Compound 162, N-(3,4-difluorophenyl)-3,7-dimethyl-3-[(5-methylisoxazol-3-yl)methyl]-1,1-dioxo-2,4-dihydropyrrolo[3,4-b][1,4,5]oxathiazepine-6-carboxamide]?
**A.** CC50 at 4 days [1]: > 25 µM; EC50 (HBV; [2]): 3 nM

**Q.** Which results are given for `CC1COc2c(cn(C)c2C(=O)Nc2ccc(F)c(F)c2)S(=O)(=O)N1` (single isomer, unassigned) [Compound 14a, N-(3,4-difluorophenyl)-3,7-dimethyl-1,1-dioxo-3,4-dihydro-2H-pyrrolo-[3,4-b][1,4,5]oxathiazepine-6-carboxamide]?
**A.** CC50 at 4 days [1]: > 25 µM; EC50 (HBV): 250 nM

**Q.** For `Cn1cc2c(c1C(=O)Nc1ccc(F)c(F)c1)OCC(C)(c1ncccn1)NS2(=O)=O` (racemic) [Compound 153, N-(3,4-difluorophenyl)-3,7-dimethyl-1,1-dioxo-3-pyrimidin-2-yl-2,4-dihydropyrrolo[3,4-b][1,4,5]oxathiazepine-6-carboxamide], which CC50 at 4 days [1] is on record?
**A.** > 25 µM

**Q.** What about the EC50 (HBV; [2]) of the same compound?
**A.** 68 nM
